According to ChEMBL document CHEMBL4261515, “An insight into the therapeutic potential of quinazoline derivatives as anticancer agents” (2017):

System: MCF7
Test: Potency index, ratio of cisplatin IC50 to test compound IC50 for cytotoxicity against human MCF7 cells after 48 hrs by MTT assay
Type: functional

COc1ccc(/C=C2\N=C(c3ccco3)N(n3c(C)nc4c(Br)cc(Br)cc4c3=O)C2=O)cc1
Ratio IC50: 3
